This note sets out measurements from patent US6352722B1, “Derivatized carbohydrates, compositions comprised thereof and methods of use thereof” (Quadrant Holdings Cambridge Limited, priority 1997, dated 2002).

Series [1] can be described thus: Glass transition temperature (Tg) of derivatized carbohydrates, by DSC. The class given is physicochemical. The text has this:
The reaction product can be characterized structurally by methods known in the art, including, but not limited to, nuclear magnetic resonance spectroscopy (NMR) and its material science properties characterized by differential scanning calorimetry (DSC). The characteristic melting points and Tgs (glass transition temperatures) for the derivatized carbohydrates can also be determined by DSC and other methods known in the art.
(§1) The carbohydrate derivatives were routinely synthesized by standard esterification of the carbohydrate with the chloride of the desired hydrocarbon side chain under anhydrous conditions and the resulting derivatives purified by standard techniques of solvent extraction and re-crystallization. For example, trehalose octa-3,3-dimethylbutyrate was synthesized by reacting 3,3,-dimethylbutyroyl chloride with trehalose in anhydrous pyridine, followed by extraction with ether, hydrochloric acid, potassium carbonate solution and water and finally re-crystallized twice from alcohol to yield colorless, needle-like crystals (˜80% yield) of m.pt 138-140° C., αD 112°. Trehalose hexa-3,3-dimethylbutyrate (THEX) can be prepared by protecting the 6,6′-hydroxy group of trehalose with a bulky group such as trityl or t-butyldiphenylsilyl, for example by heating trehalose and trityl chloride in pyridine. The 6,6′-ditrityltrehalose can be acylated with 3,3-dimethylbutyroyl chloride in pyridine to give 6,6′-ditritylhexa-3,3-dimethylbutyryltrehalose. The trityl group can be removed by strong acid, for example hydrogen bromide in acetic acid, to give THEX. TACT can be prepared by acylating THEX with acetic anhydride in pyridine. Suitable work-up yields the HDC in crystalline form. The physical characteristics, melting points and glass transition temperatures (Tg, ° C.) of selected carbohydrate derivatives are shown in Tables 1-5.
(In DSC, transitions show as peaks or steps in heat flow.)

Series [2] in a line: Tg of HDC formulations with incorporated active. The class given is physicochemical. The text has this:
(§2) The model hydrophilic drug, diltiazem hydrochloride (“hydrophilic active”), was incorporated (10% loading) into solid vehicles of the single straight chain HDC trehalose octaacetate or the branched chain HDCs trehalose octa-3,3, dimethylbutyrate and trehalose octapivalate as well as composite formulations (1:1 ratio) of the two branched-chain HDCs or the straight chain HDC trehalose octaacetate and the branched chain HDC trehalose octapivalate, by quenching from the melt. Release of the active from the HDC solid dose delivery vehicle was assessed using an in vitro USP (volume 23) type 2 dissolution test in saline containing 0.1% sodium cholate as the dissolution medium.
The model hydrophilic drug diltiazem hydrochloride was also incorporated (5% loading) into solid vehicles of the single branched chain HDCs trehalose diisobutyrate hexaacetate and trehalose octapivalate and composite formulations (1:1 ratio) of the two branched-chain HDCs by solvent removal by rotary evaporation, in a Buchi Rotavapor R-124, of a 20% solution of active plus HDCs in a dichloromethane: acetone mixed solvent (9:1 ratio) system. […] (trehalose octapivalate) of the single branched-chain HDC formulations of active.
(§3) The model hydrophobic steroid fluticasone propionate (“hydrophobic active”) was incorporated (5% loading) into solid vehicles of the single straight chain HDC trehalose octaacetate or the branched chain HDCs trehalose octa-3,3, dimethylbutyrate and trehalose dipropanoate hexaacetate and composite formulations (1:1 ratio) of the two branched-chain HDCs by either quenching from the melt or solvent evaporation by rotary evaporation. Melt incorporation was carried out by melting the HDCs at 150-170° C. and dissolving the active in the melt at 120-140° C. Rotary evaporation was carried out using a Buchi Rotavapor R-124 using a 20% solution of active plus HDCs in a dichloromethane: acetone mixed solvent (9:1 ratio) system. The hydrophobic active was also incorporated into solid vehicles of the branched chain HDCs, trehalose octapivalate, trehalose diisobutyrate hexaacetate and lactose isobutyrate heptaacetate, either by quenching from the melt or solvent evaporation by rotary evaporation. Release of hydrophobic active from the HDC solid dose delivery vehicle was assessed using an in vitro USP (volume 23) type 2 dissolution test in saline containing 0.1% sodium cholate as the dissolution medium.
(§4) As an example of a polypeptide drug, the polypeptide hormone insulin (“polypeptide active”) was incorporated (10% loading) into solid vehicles of the single branched chain HDCs trehalose diisobutyrate hexaacetate and trehalose hexapivalate and composite formulations of the branched chain HDCs trehalose diisobutyrate hexaacetate and trehalose octapivalate (8:1 ratio) by solvent removal by lyophilization of a 20% solution of insulin plus HDCs in dimethylsulfoxide. […] Release of active from the HDC solid dose delivery vehicle was assessed using an in vitro USP (volume 23) type 2 dissolution test in saline containing 0.1% sodium cholate as the dissolution medium.

A short description of series [3]: Glass formation, crystallization and glass stability above ambient temperature. The class given is physicochemical.
Excerpt: In the usual process to form a vitreous glass, a high temperature melt is quenched (cooled quickly) to solidify without crystallization to a vitreous glass. Most glassy materials can theoretically quench to a vitreous glass, however, factors such as low melt viscosity, thermodynamically favorable crystalline states and thermal degradation, limit their potential to form vitreous rather than crystalline solids.
as §1
This unusual property of branched-chain derivatives enables more hydrophobic derivatives (compared to the acetates) to be prepared, which permits further reduction of drug release rates for longer term applications.

Series [4] in a line: In vitro USP (volume 23) type 2 dissolution test, release of active from HDC solid vehicle. In kind it is physicochemical. The following applies: saline with 0.1% sodium cholate; for release of fluticasone propionate from single HDC formulation: compared to trehalose octaacetate formulation Q1 (FIG. 3).
Excerpt: as §2, §3, §4

Series [5] in a line: Devitrification / glass stability when immersed in aqueous media. The following applies: immersed in saline medium at 37° C.
[6] abbreviates: derivatized carbohydrate without active, Table 5.
The mark [7] stands for this setting: hydrophobic active (fluticasone propionate, 5% loading) incorporated.
Setting [8] is: derivatized carbohydrate alone, Tables 1-4.
Setting [9] is: polypeptide active (insulin, 10% loading) incorporated by lyophilization from dimethylsulfoxide.
The mark [10] stands for this setting: hydrophilic active (diltiazem hydrochloride) incorporated.

Turning to Trehalose dipropanoate hexaacetate, the “Tg(° C.)” value in series [1] (setting [6]) was found to be 38 °C. Besides, in series [2] (setting [7]), the “Tg (° C.) with active incorporated” value stood at 44 °C.

Consider `CC(=O)OCC1OC(OC2C(COC(C)=O)OC(OC(C)=O)C(OC(C)=O)C2OC(C)=O)C(OC(C)=O)C(OC(C)=O)C1OC(C)=O` (stereo not drawn) [β-Cellobiose octaacetate, reference compound], for which the “Tg(° C.)” value in series [1] (setting [8]) worked out at 53 °C. Moreover, the “COMMENT: glass formation / glass stability above ambient temperature” value in series [3] is “Good glass former”.

For the molecule `CC(C)(C)CC(=O)OC[C@H]1O[C@H](O[C@H]2O[C@H](COC(=O)CC(C)(C)C)[C@@H](OC(=O)CC(C)(C)C)[C@H](OC(=O)CC(C)(C)C)[C@H]2OC(=O)CC(C)(C)C)[C@H](OC(=O)CC(C)(C)C)[C@@H](OC(=O)CC(C)(C)C)[C@@H]1OC(=O)CC(C)(C)C` [Trehalose octa-3,3-dimethylbutyrate], the “Tg(° C.)” value in series [1] (setting [8]) was found to be 42 °C; in series [1] (setting [6]), 46 °C. Further, the “Tg (° C.) with active incorporated” value in series [2] (setting [7]) was found to be 45 °C. Moreover, the “release of diltiazem hydrochloride (DZM) from single HDC formulation” value in series [4] (10% loading, compared to trehalose octaacetate formulation (FIG. 1)) is “much slower release”. In addition, the “release of fluticasone propionate from single HDC formulation” value in series [4] is on record as “much slower release”.

In the case of `CC(=O)OCC1OC(OC2OC(COC(C)=O)C(OC(C)=O)C(OC(C)=O)C2OC(C)=O)C(OC(C)=O)C(OC(C)=O)C1OC(C)=O` (stereo not shown) [Trehalose octaacetate, reference compound], the “Tg(° C.)” value in series [1] (setting [8]) worked out at 55 °C; in series [1] (setting [6]), 50 °C. Moreover, the “Tg (° C.) with active incorporated” value in series [2] (setting [7]) was 53 °C. Also, the “release of active (insulin)” value in series [4] (after 1 hour in the dissolution assay) worked out at 88%.

As to `CC(=O)OC[C@H]1O[C@H](O[C@H]2O[C@H](COC(C)=O)[C@@H](OC(=O)CC(C)(C)C)[C@H](OC(=O)CC(C)(C)C)[C@H]2OC(=O)CC(C)(C)C)[C@H](OC(=O)CC(C)(C)C)[C@@H](OC(=O)CC(C)(C)C)[C@@H]1OC(=O)CC(C)(C)C` [Trehalose 6,6′-diaacetate hexa-3,3-dimethylbutyrate], the “stability of the glassy state” value in series [5] is on record as “the glass stability is reduced”. In series [1] (setting [8]), the “Tg(° C.)” value amounted to 44 °C.

As to `CC(C)C(=O)OCC1OC(OC2C(COC(=O)C(C)C)OC(OC(=O)C(C)C)C(OC(=O)C(C)C)C2OC(=O)C(C)C)C(OC(=O)C(C)C)C(OC(=O)C(C)C)C1OC(=O)C(C)C` (stereo not shown) [Cellobiose octaisobutyrate], in series [3], the “COMMENT: glass formation / glass stability above ambient temperature” value is listed as “very hard to quench to glass”.

On to Trehalose hexa-3,3-dimethylbutyrate, for which the “stability of the glassy state” value in series [5] is listed as “stable in the glassy state”. Further, the “Tg(° C.)” value in series [1] (setting [8]) amounted to 64 °C.

Regarding `CC(=O)OC[C@H]1O[C@@H](O[C@H]2[C@H](OC(C)=O)[C@@H](OC(C)=O)C(OC(=O)C(C)C)O[C@@H]2COC(C)=O)[C@H](OC(C)=O)[C@@H](OC(C)=O)[C@H]1OC(C)=O` (stereo partly shown) [Lactose isobutyrate heptaacetate], the “Tg(° C.)” value in series [1] (setting [8]) and in series [1] (setting [6]) was 60 °C each time. For the same molecule, the values for the crystallization from solution result in series [3] (blend: small amount of the corresponding anomer added) and in series [3] (pure α,β anomers) were “fails to crystallize” and “crystallize from solution”, respectively. Further, the “Tg (° C.) with active incorporated” value in series [2] (setting [7]) amounted to 59 °C.

In the case of Trehalose hexapivalate, the “Tg(° C.)” value in series [1] (setting [8]) and in series [1] (setting [6]) was 86 °C each time. Besides, the “Tg (° C.) with active incorporated” value in series [2] (setting [9]) was determined as 76.5 °C.

`CC(C)(C)C(=O)OC[C@H]1O[C@H](O[C@H]2O[C@H](COC(=O)C(C)(C)C)[C@@H](OC(=O)C(C)(C)C)[C@H](OC(=O)C(C)(C)C)[C@H]2OC(=O)C(C)(C)C)[C@H](OC(=O)C(C)(C)C)[C@@H](OC(=O)C(C)(C)C)[C@@H]1OC(=O)C(C)(C)C` [Trehalose octapivalate]: the “Tg(° C.)” value in series [1] (setting [8]) was 81 °C; in series [1] (setting [6]), 80 °C. Moreover, the figures for the “Tg (° C.) with active incorporated” value in series [2] (setting [10]) and in series [2] (setting [7]) were 83.7 °C and 80 °C, respectively. For the same molecule, in series [4], the “release of fluticasone propionate from single HDC formulation” value was “much slower release”.

As for Trehalose diisobutyrate hexaacetate, the “Tg(° C.)” value in series [1] (setting [6]) worked out at 42 °C. In addition, the “Tg (° C.) with active incorporated” value stood at 46.5 °C in series [2] (setting [10]), 50 °C in series [2] (setting [7]) and 50.1 °C in series [2] (setting [9]).

Turning to `CC(=O)OCC1OC(OC2C(COC(C)=O)OC(OC(C)=O)C(OC(C)=O)C2OC(C)=O)C(OC(C)=O)C(OC(C)=O)C1OC(C)=O` (stereo not drawn) [α-Cellobiose octaacetate, reference compound], the “Tg(° C.)” value in series [1] (setting [8]) is 65 °C. The “COMMENT: glass formation / glass stability above ambient temperature” value in series [3] was “Poor glass former”.
